From patent US5785948A, “Metal chelate forming peptides and use thereof represented by three amino acid sequences” (Nihon Medi-Physics Co., Ltd., priority 1994, dated 1998)
Where no end group is shown, it is not given here.

Assays:
Tumor cells HEp2 = assay: Imaging of tumor in HEp2 tumor-bearing nude mouse (gamma camera, organ radioactivity); type: in vivo, BALB/C nude mouse; conditions: twenty minutes after injection
Procedure: Tumor cells HEp2 (5×10^6 cells, Human Epidermoid Carcinoma; ATCC No. CCL 23) were suspended in 1.0 ml of medium (Minimum essential medium (Eagle's) with Earle's BSS, 90% fetal bovine serum, 10%), and 100 μl of the suspension was subcutaneously injected to BALB/C nude mouse (6 weeks age) at the body side. […] Five and 20 minutes after the injection, the animal was imaged with a gamma camera.
Immediately after the imaging, the animal was sacrificed and examined for the distribution of the radioactivity in each organ using NaI single channel analyzer to determine a ratio of the radioactivity in tumor site to the radioactivity in muscle site (T/B ratio).

inflammation site = conditions: S. aureus inflammation rat
Procedure: Staphylococcus aureus 10^8 cells were suspended in 1 ml of physiological saline, and 100 μl of the suspension was intramuscularly administered to SD rats weighing about 220 g at the right calf. […] Thirty and 120 minutes after the peptide was injected, the animal was imaged with a gamma camera. Regions of interest were selected from the obtained image to determine a ratio T/B of the radioactivity in inflammation site (T) to the radioactivity in normal site (B).

Row | Substance | T/B ratio (radioactivity in tumor site to radioactivity in muscle site) (Tumor cells HEp2; i.v. tail vein, n=3) | Imaging of tumor site (gamma camera) (Tumor cells HEp2) | T/B ratio (radioactivity in inflammation site to radioactivity in normal site) (inflammation site; i.v. tail vein, regions of interest of image, n=6) | Imaging of inflammation site (gamma camera) (inflammation site; imaged 30 and 120 minutes after injection)
1 | Tc-99m-KYCAREPPTRTNAYWGQG (also: Tc-99m label) [Tc-99m-labeled peptide containing KYC at the N-terminus, for tumor imaging] | 4.50±0.71 | clearly imaged |  | 
2 | Tc-99m-KYCGGKTKPREQQYNSTYRVV-NH2 |  |  | 3.26±0.18 | clearly imaged
